Data: patent US10633353B2, “Polymerizable compound, composition, polymer, optically anisotropic body, liquid crystal display element, and organic EL display” (DIC Corporation, priority 2014, dated 2020)

experiment: Preservation stability of the coating liquid; type: physicochemical; details: coating liquid stored for 2 months shielded from light at 0° C.; appearance and GPC
Procedure: The preservation stability of the coating liquid was evaluated on a scale of A to E on the basis of the state of the coating liquid that was stored for 2 months under a condition where the coating liquid was shielded from light at 0° C.
A: No visual change in the appearance of the coating liquid was confirmed. A GPC analysis of the coating liquid confirmed that the change in the composition of the coating liquid was 1% or less.
B: No visual change in the appearance of the coating liquid was confirmed. A GPC analysis of the coating liquid confirmed that the change in the composition of the coating liquid was 2% or less.
C: A visual change in the appearance of the coating liquid was confirmed; a trace amount of insoluble components were confirmed, or a GPC analysis of the coating liquid confirmed that the change in the composition of the coating liquid was 3% or less.
D: A visual change in the appearance of the coating liquid was confirmed; insoluble components were confirmed. The ratio of the weight of the insoluble components to the total solid content was 5% or less.
E: A large amount of insoluble components were visually confirmed. The ratio of the weight of the insoluble components to the total solid content was 5% or more.

Q: For `C=CC(=O)OCCCCCCOc1ccc(C(=O)OCCc2ccc(OC(=O)c3ccc(OCCCCCCOC(=O)C=C)cc3)c(/C=N/Nc3nc4ccccc4s3)c2)cc1` [1-c-1], which Preservation stability is on record?
A: A (No visual change in the appearance of the coating liquid was confirmed. A GPC analysis of the coating liquid confirmed that the change in the composition of the coating liquid was 1% or less.)

Q: With `C=CC(=O)OCCCOc1ccc(C(=O)OCCc2ccc(OC(=O)c3ccc(OCCCOC(=O)C=C)cc3)c(/C=N/Nc3nc4ccccc4s3)c2)cc1` [1-c-2] as the molecule, how does the Preservation stability read?
A: A (No visual change in the appearance of the coating liquid was confirmed. A GPC analysis of the coating liquid confirmed that the change in the composition of the coating liquid was 1% or less.)

Q: For `C=CC(=O)OCCCCOc1ccc(C(=O)OCCc2ccc(OC(=O)c3ccc(OCCCCOC(=O)C=C)cc3)c(/C=N/Nc3nc4ccccc4s3)c2)cc1` [1-c-3], which Preservation stability is on record?
A: A (No visual change in the appearance of the coating liquid was confirmed. A GPC analysis of the coating liquid confirmed that the change in the composition of the coating liquid was 1% or less.)

Q: For `C=CC(=O)OCCCCCOc1ccc(C(=O)OCCc2ccc(OC(=O)c3ccc(OCCCCCOC(=O)C=C)cc3)c(/C=N/Nc3nc4ccccc4s3)c2)cc1` [1-c-4], which Preservation stability is on record?
A: A (No visual change in the appearance of the coating liquid was confirmed. A GPC analysis of the coating liquid confirmed that the change in the composition of the coating liquid was 1% or less.)

Q: For `C=C(C)C(=O)OCCCOc1ccc(C(=O)OCCc2ccc(OC(=O)c3ccc(OCCCOC(=O)C(=C)C)cc3)c(/C=N/Nc3nc4ccccc4s3)c2)cc1` [1-c-5], which Preservation stability is on record?
A: A (No visual change in the appearance of the coating liquid was confirmed. A GPC analysis of the coating liquid confirmed that the change in the composition of the coating liquid was 1% or less.)

Q: For `C=C(C)C(=O)OCCCCOc1ccc(C(=O)OCCc2ccc(OC(=O)c3ccc(OCCCCOC(=O)C(=C)C)cc3)c(/C=N/Nc3nc4ccccc4s3)c2)cc1` [1-c-6], which Preservation stability is on record?
A: A (No visual change in the appearance of the coating liquid was confirmed. A GPC analysis of the coating liquid confirmed that the change in the composition of the coating liquid was 1% or less.)

Q: For `C=C(C)C(=O)OCCCCCOc1ccc(C(=O)OCCc2ccc(OC(=O)c3ccc(OCCCCCOC(=O)C(=C)C)cc3)c(/C=N/Nc3nc4ccccc4s3)c2)cc1` [1-c-7], which Preservation stability is on record?
A: A (No visual change in the appearance of the coating liquid was confirmed. A GPC analysis of the coating liquid confirmed that the change in the composition of the coating liquid was 1% or less.)

Q: Which Preservation stability does the source give for `C=C(C)C(=O)OCCCCCCOc1ccc(C(=O)OCCc2ccc(OC(=O)c3ccc(OCCCCCCOC(=O)C(=C)C)cc3)c(/C=N/Nc3nc4ccccc4s3)c2)cc1` [1-c-8] here?
A: A (No visual change in the appearance of the coating liquid was confirmed. A GPC analysis of the coating liquid confirmed that the change in the composition of the coating liquid was 1% or less.)

Q: With `C=CC(=O)OCCCOc1ccc(C(=O)OCCc2ccc(CCOC(=O)c3ccc(OCCCOC(=O)C=C)cc3)c(/C=N/Nc3nc4ccccc4s3)c2)cc1` [1-c-9] as the molecule, how does the Preservation stability read?
A: A (No visual change in the appearance of the coating liquid was confirmed. A GPC analysis of the coating liquid confirmed that the change in the composition of the coating liquid was 1% or less.)

Q: For `C=CC(=O)OCCCCOc1ccc(C(=O)OCCc2ccc(CCOC(=O)c3ccc(OCCCCOC(=O)C=C)cc3)c(/C=N/Nc3nc4ccccc4s3)c2)cc1` [1-c-10], which Preservation stability is on record?
A: A (No visual change in the appearance of the coating liquid was confirmed. A GPC analysis of the coating liquid confirmed that the change in the composition of the coating liquid was 1% or less.)

Q: With `C=CC(=O)OCCCCCOc1ccc(C(=O)OCCc2ccc(CCOC(=O)c3ccc(OCCCCCOC(=O)C=C)cc3)c(/C=N/Nc3nc4ccccc4s3)c2)cc1` [1-c-11] as the molecule, how does the Preservation stability read?
A: A (No visual change in the appearance of the coating liquid was confirmed. A GPC analysis of the coating liquid confirmed that the change in the composition of the coating liquid was 1% or less.)

Q: For `C=CC(=O)OCCCCCCOc1ccc(C(=O)OCCc2ccc(CCOC(=O)c3ccc(OCCCCCCOC(=O)C=C)cc3)c(/C=N/Nc3nc4ccccc4s3)c2)cc1` [1-c-12], which Preservation stability is on record?
A: A (No visual change in the appearance of the coating liquid was confirmed. A GPC analysis of the coating liquid confirmed that the change in the composition of the coating liquid was 1% or less.)

Q: For `C=CC(=O)OCCCOc1ccc(OC(=O)C2CCC(C(=O)OCCc3ccc(OC(=O)C4CCC(C(=O)Oc5ccc(OCCCOC(=O)C=C)cc5)CC4)c(C=NNc4nc5ccccc5s4)c3)CC2)cc1` (centres unmarked) [1-c-13], which Preservation stability is on record?
A: A (No visual change in the appearance of the coating liquid was confirmed. A GPC analysis of the coating liquid confirmed that the change in the composition of the coating liquid was 1% or less.)

Q: Which Preservation stability does the source give for `C=CC(=O)OCCCCOc1ccc(OC(=O)C2CCC(C(=O)OCCc3ccc(OC(=O)C4CCC(C(=O)Oc5ccc(OCCCCOC(=O)C=C)cc5)CC4)c(C=NNc4nc5ccccc5s4)c3)CC2)cc1` (centres unmarked) [1-c-14] here?
A: A (No visual change in the appearance of the coating liquid was confirmed. A GPC analysis of the coating liquid confirmed that the change in the composition of the coating liquid was 1% or less.)

Q: For `C=CC(=O)OCCCCCOc1ccc(OC(=O)C2CCC(C(=O)OCCc3ccc(OC(=O)C4CCC(C(=O)Oc5ccc(OCCCCCOC(=O)C=C)cc5)CC4)c(C=NNc4nc5ccccc5s4)c3)CC2)cc1` (centres unmarked) [1-c-15], which Preservation stability is on record?
A: A (No visual change in the appearance of the coating liquid was confirmed. A GPC analysis of the coating liquid confirmed that the change in the composition of the coating liquid was 1% or less.)

Q: With `C=CC(=O)OCCCOc1ccc(C(=O)OCCc2ccc(OC(=O)c3ccc(OCCCOC(=O)C=C)cc3)c(/C=N/Nc3nc4cc([N+](=O)[O-])ccc4s3)c2)cc1` [1-c-23] as the molecule, how does the Preservation stability read?
A: B (No visual change in the appearance of the coating liquid was confirmed. A GPC analysis of the coating liquid confirmed that the change in the composition of the coating liquid was 2% or less.)

Q: With `C=CC(=O)OCCCOc1ccc(C(=O)OCCc2ccc(OC(=O)c3ccc(OCCCOC(=O)C=C)cc3)c(/C=N/Nc3nc4cc(Cl)ccc4s3)c2)cc1` [1-c-24] as the molecule, how does the Preservation stability read?
A: B (No visual change in the appearance of the coating liquid was confirmed. A GPC analysis of the coating liquid confirmed that the change in the composition of the coating liquid was 2% or less.)

Q: Which Preservation stability does the source give for `C=CC(=O)OCCCOc1ccc(C(=O)OCCc2ccc(OC(=O)c3ccc(OCCCOC(=O)C=C)cc3)c(/C=N/Nc3nc4cc(C#N)ccc4s3)c2)cc1` [1-c-25] here?
A: B (No visual change in the appearance of the coating liquid was confirmed. A GPC analysis of the coating liquid confirmed that the change in the composition of the coating liquid was 2% or less.)

Q: With `C=CC(=O)OCCCOc1ccc(C(=O)OCCc2ccc(OC(=O)c3ccc(OCCCOC(=O)C=C)cc3)c(/C=N/Nc3nc4cc(CCC)ccc4s3)c2)cc1` [1-c-26] as the molecule, how does the Preservation stability read?
A: A (No visual change in the appearance of the coating liquid was confirmed. A GPC analysis of the coating liquid confirmed that the change in the composition of the coating liquid was 1% or less.)

Q: Which Preservation stability does the source give for `C=CC(=O)OCCCCOc1ccc(C(=O)OCCc2ccc(OC(=O)c3ccc(OCCCCOC(=O)CC)cc3)c(/C=N/Nc3cc4ccccc4[nH]3)c2)cc1` [1-c-28] here?
A: B (No visual change in the appearance of the coating liquid was confirmed. A GPC analysis of the coating liquid confirmed that the change in the composition of the coating liquid was 2% or less.)

Q: For `C=CC(=O)OCCCCCOc1ccc(C(=O)OCCc2ccc(OC(=O)c3ccc(OCCCCCOC(=O)C=C)cc3)c(/C=N/Nc3nc4cc(O)c([N+](=O)[O-])cc4[nH]3)c2)cc1` [1-c-29], which Preservation stability is on record?
A: B (No visual change in the appearance of the coating liquid was confirmed. A GPC analysis of the coating liquid confirmed that the change in the composition of the coating liquid was 2% or less.)

Q: Which Preservation stability does the source give for `C=CC(=O)OCCCCCCOc1ccc(C(=O)OCCc2ccc(OC(=O)c3ccc(OCCCCCCOC(=O)C=C)cc3)c(/C=N/Nc3nc4cc([N+](=O)[O-])ccc4s3)c2)cc1` [1-c-30] here?
A: B (No visual change in the appearance of the coating liquid was confirmed. A GPC analysis of the coating liquid confirmed that the change in the composition of the coating liquid was 2% or less.)

Q: With `C=CC(=O)OCCCCCCOc1ccc(C(=O)OCCc2ccc(OC(=O)c3ccc(OCCCCCCOC(=O)C=C)cc3)c(/C=N/Nc3ccc(C#Cc4ccccc4)cc3)c2)cc1` [1-c-31] as the molecule, how does the Preservation stability read?
A: B (No visual change in the appearance of the coating liquid was confirmed. A GPC analysis of the coating liquid confirmed that the change in the composition of the coating liquid was 2% or less.)

Q: Which Preservation stability does the source give for `C=CC(=O)OCCCCCCOc1ccc(C(=O)OCCc2ccc(OC(=O)c3ccc(OCCCCCCOC(=O)C=C)cc3)c(/C=N/Nc3ccc4ccccc4c3)c2)cc1` [1-c-32] here?
A: B (No visual change in the appearance of the coating liquid was confirmed. A GPC analysis of the coating liquid confirmed that the change in the composition of the coating liquid was 2% or less.)

Q: With `C=CC(=O)OCCCCCCOc1ccc(C(=O)OCCc2ccc(OC(=O)c3ccc(OCCCCCCOC(=O)C=C)cc3)c(/C=N/Nc3nc4ccc5ccccc5c4s3)c2)cc1` [1-c-33] as the molecule, how does the Preservation stability read?
A: B (No visual change in the appearance of the coating liquid was confirmed. A GPC analysis of the coating liquid confirmed that the change in the composition of the coating liquid was 2% or less.)

Q: With `C=CC(=O)OCCCCCCOc1ccc(C(=O)OCCc2ccc(OC(=O)c3ccc(OCCCCCCOC(=O)C=C)cc3)c(/C=N/Nc3nc(-c4ccc5ccccc5c4)cs3)c2)cc1` [1-c-34] as the molecule, how does the Preservation stability read?
A: B (No visual change in the appearance of the coating liquid was confirmed. A GPC analysis of the coating liquid confirmed that the change in the composition of the coating liquid was 2% or less.)
